A value given as a limit tells only on which side of the number the result lay.

The results in this text go back to patent US6071945A, “8H-thieno-[2,3-b]pyrrolizin-8-one compounds” (Adir et Compagnie, priority 1998, dated 2000).

Experiment [1] deals with KB-A1 multi-drug resistant (adriamycin) human epidermoid carcinoma cells. The experiment is described as follows: In vitro cytotoxicity (Microculture Tetrazolium Assay), KB-A1. The conditions noted are these: 96 h, KB-A1, 4 days incubation, read-out: IC50, concentration that inhibits the proliferation of the treated cells by 50%. Type of experiment: cell-based. How it is done: (§1) Six cell lines were used:
(§2) 1 human epidermoid carcinoma, KB-3-1 , and the corresponding resistant line, KB-A 1, the multi-drug, resistance of which was produced using adriamycin (ADR),
(§3) The cells are cultured in RPMI 1640 complete culture medium containing 10% fetal calf serum, 2 mM glutamine, 50 units/ml of penicillin, 50 μg/ml of streptomycin and 10 mM Hepes, pH=7.4. The cells are distributed on microtitre plates and exposed to the cytotoxic compounds. The cells are then incubated for 2 days (P388, L1210) or 4 days (A549, KB-A1, KB-3-1, IGROV1). The number of viable cells is then quantified by means of a calorimetric assay, the Microculture Tetrazolium Assay (Cancer Res. 1987, 47, 939-942).
(§4) The results are expressed as IC50, the concentration of cytotoxic agent that inhibits the proliferation of the treated cells by 50%.

Another experiment relates to L1210 cells. The experiment is described as follows: Action on the cell cycle. Format: cell-based, murine. The conditions noted are these: 500 nM, 21 hours, 37° C.; control: 20%. How it is done: L1210 cells are incubated for 21 hours at 37° C. in the presence of different concentrations of the products being tested. The cells are then fixed using 70% (v/v) ethanol, washed twice in PBS and incubated for 30 minutes at 20° C. in PBS containing 100 μg/ml of RNase and 50 μg/ml of propidium iodide. The results are expressed as the percentage of cells that have accumulated in the G2+M phase after 21 hours, compared to the control (control: 20%). At a concentration of 500 nM, the compound of Example 8 causes 80-90% of the cells to accumulate in the G2+M phase after 21 hours.

Experiment [2] deals with P388 murine leukaemia cells. Description: In vitro cytotoxicity (Microculture Tetrazolium Assay), P388. Type of experiment: cell-based. The conditions noted are these: Mus musculus, 48 h; P388, 2 days incubation; read-out: IC50, concentration that inhibits the proliferation of the treated cells by 50%. The protocol: as §1, §3, §4
In experiment [3] the test system is KB-3-1 human epidermoid carcinoma cells. Description: In vitro cytotoxicity (Microculture Tetrazolium Assay), KB-3-1. Format: cell-based. The conditions noted are these: 96 h, KB-3-1, 4 days incubation, read-out: IC50, concentration that inhibits the proliferation of the treated cells by 50%. The protocol:
as §1, §2, §3, §4

The test system of a further experiment is P388 leukaemia. Description: In vivo anti-tumour activity on the P388 leukaemia. Also on record: species or system female BDF1 mice. The note with it: intraperitoneal, once per day for 4 days (D1-4). How it is done:
Line P388 (murine leukaemia) was supplied by the National Cancer Institute (Frederick, U.S.A.). The tumour cells (10^6 cells) were inoculated on day 0 into the peritoneal cavity of female BDF1 mice (Iffa-Credo, France) weighing from 18 to 20 g (groups of 6 animals). The products were administered by the intraperitoneal route once per day for 4 days (D1-4) at the doses indicated.
(§5) The anti-tumour activity is expressed as % T/C: [formula]

The test system of experiment [4] is A549 human non-small-cell lung carcinoma cells. Description: In vitro cytotoxicity (Microculture Tetrazolium Assay), A549. The conditions noted are these: 96 h, A549, 4 days incubation, read-out: IC50, concentration that inhibits the proliferation of the treated cells by 50%. Type of experiment: cell-based. How it is done:
as §1
1 human non-small-cell lung carcinoma, A549,
as §3, §4

Experiment [5] concerns L1210 murine leukaemia cells. The experiment is described as follows: In vitro cytotoxicity (Microculture Tetrazolium Assay), L1210. Format: cell-based. The conditions noted are these: Mus musculus, 48 h; L1210, 2 days incubation; read-out: IC50, concentration that inhibits the proliferation of the treated cells by 50%. How it is done:
as §1, §3, §4

The test system of experiment [6] is cells originating from human solid tumours. The experiment is described as follows: In vitro cytotoxicity, human solid tumour cells compared with murine leukaemias. Format: cell-based. The note with it: versus P388 and L1210. The protocol:
as §1, §3, §4

For experiment [7], the system named is IGROV1 human ovarian carcinoma cells. Description: In vitro cytotoxicity (Microculture Tetrazolium Assay), IGROV1. Format: cell-based. The conditions noted are these: IGROV-1, 96 h, IGROV1, 4 days incubation, read-out: IC50, concentration that inhibits the proliferation of the treated cells by 50%. How it is done: as §1
1 human ovarian carcinoma, IGROV1.
as §3, §4

A further experiment concerns IGROV1 ovarian carcinoma. Description: In vivo anti-tumour activity on the IGROV1 ovarian carcinoma. The note with it: 200 mg/kg, intraperitoneal, once per week on days 4, 11 and 18. Also on record: species or system nude BABL/C mice. How it is done: as §5
IGROV1 tumour cells (10^7 cells) were incubated on day 0 in the peritoneal cavity of nude BABL/C mice (groups of 5 animals). The products were administered by the intraperitoneal route once per week on days 4, 11 and 18. The anti-tumour activity is expressed as % T/C as defined hereinbefore. The compound of Example 8 is active at the 200 mg/kg dose and increases the survival of the treated animals by 60% (T/C=160%).

`O=C1c2scc(-c3ccc(O)c(O)c3)c2-n2cccc21` [Example 8, 3-(3,4-Dihydroxyphenyl)-8H-thieno[2,3-b]pyrrolizin-8-one]: the IC50 in [1] stood at 22 nM; in experiment [2], 356 nM; in [3] it was 33 nM; in experiment [4], 122 nM; in experiment [5] it was 222 nM; in [7], 56 nM. Also, in the experiment with L1210 cells, the “percentage of cells that have accumulated in the G2+M phase” value is 80-90%. Moreover, the minimal effective dose in the experiment with P388 leukaemia (Mus musculus, P388, ip, read-out: dose from which the compound is active) was not below 25 mg/kg. Moreover, the “increase in survival of the treated animals” value with P388 leukaemia (active from the 25 mg/kg dose) is 70%; in the experiment with IGROV1 ovarian carcinoma, 60%. For the same molecule, the “effect on cells originating from human solid tumours compared with the two murine leukaemias” value in [6] was “more potent effect on the cells originating from human solid tumours than on the two murine leukaemias”. The T/C (in general, the ratio of treated to control) with IGROV1 ovarian carcinoma amounted to 160%.
